Results as given in ChEMBL document CHEMBL1135323, “Dihydroquinolines as novel n-NOS inhibitors” (Bioorg Med Chem Lett, 2002).

Tests used:
[1] = target: Nitric oxide synthase, inducible (Homo sapiens, UniProt P35228); assay: In vitro inhibition of inducible nitric oxide synthase.
Nitric oxide synthase 3 = target: T1, Nitric oxide synthase 3 (Homo sapiens, UniProt P29474); assay: In vitro inhibition of endothelial nitric oxide synthase.
T1 sequence (P29474 whole entry): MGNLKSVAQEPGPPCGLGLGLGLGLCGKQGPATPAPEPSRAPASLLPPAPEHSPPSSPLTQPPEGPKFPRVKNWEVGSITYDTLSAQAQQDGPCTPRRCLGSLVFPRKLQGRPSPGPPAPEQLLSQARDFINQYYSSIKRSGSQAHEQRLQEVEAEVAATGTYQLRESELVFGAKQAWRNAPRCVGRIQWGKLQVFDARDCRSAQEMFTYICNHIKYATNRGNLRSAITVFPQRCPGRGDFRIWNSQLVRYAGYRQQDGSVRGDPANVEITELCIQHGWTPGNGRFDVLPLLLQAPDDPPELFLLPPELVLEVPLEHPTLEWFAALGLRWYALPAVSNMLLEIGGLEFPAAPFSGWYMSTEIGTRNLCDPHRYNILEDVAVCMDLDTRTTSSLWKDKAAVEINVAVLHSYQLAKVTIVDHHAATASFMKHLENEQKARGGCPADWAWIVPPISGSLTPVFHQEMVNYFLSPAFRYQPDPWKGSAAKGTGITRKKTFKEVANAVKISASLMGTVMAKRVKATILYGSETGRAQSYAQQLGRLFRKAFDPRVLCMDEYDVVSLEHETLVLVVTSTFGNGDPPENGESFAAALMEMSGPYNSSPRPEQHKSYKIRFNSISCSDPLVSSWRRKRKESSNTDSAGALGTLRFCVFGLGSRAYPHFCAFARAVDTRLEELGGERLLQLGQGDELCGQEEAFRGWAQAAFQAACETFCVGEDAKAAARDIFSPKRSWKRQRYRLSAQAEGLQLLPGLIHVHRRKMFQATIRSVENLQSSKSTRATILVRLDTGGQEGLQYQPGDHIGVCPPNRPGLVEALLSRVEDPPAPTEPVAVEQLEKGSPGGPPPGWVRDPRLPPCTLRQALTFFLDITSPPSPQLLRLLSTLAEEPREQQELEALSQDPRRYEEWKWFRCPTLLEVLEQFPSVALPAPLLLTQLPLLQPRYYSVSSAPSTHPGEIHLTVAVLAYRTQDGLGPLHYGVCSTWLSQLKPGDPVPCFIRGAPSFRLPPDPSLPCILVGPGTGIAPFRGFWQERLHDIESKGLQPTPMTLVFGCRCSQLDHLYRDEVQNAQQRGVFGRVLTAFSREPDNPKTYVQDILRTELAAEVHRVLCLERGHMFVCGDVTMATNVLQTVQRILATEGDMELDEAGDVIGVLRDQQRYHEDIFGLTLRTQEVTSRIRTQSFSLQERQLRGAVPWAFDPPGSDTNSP

Nitric oxide synthase 1 = Nitric oxide synthase 1 (Homo sapiens, UniProt P29475); assay: Concentration required to inhibit neuronal nitric oxide synthase
Chain of Nitric oxide synthase 1 (P29475 whole entry): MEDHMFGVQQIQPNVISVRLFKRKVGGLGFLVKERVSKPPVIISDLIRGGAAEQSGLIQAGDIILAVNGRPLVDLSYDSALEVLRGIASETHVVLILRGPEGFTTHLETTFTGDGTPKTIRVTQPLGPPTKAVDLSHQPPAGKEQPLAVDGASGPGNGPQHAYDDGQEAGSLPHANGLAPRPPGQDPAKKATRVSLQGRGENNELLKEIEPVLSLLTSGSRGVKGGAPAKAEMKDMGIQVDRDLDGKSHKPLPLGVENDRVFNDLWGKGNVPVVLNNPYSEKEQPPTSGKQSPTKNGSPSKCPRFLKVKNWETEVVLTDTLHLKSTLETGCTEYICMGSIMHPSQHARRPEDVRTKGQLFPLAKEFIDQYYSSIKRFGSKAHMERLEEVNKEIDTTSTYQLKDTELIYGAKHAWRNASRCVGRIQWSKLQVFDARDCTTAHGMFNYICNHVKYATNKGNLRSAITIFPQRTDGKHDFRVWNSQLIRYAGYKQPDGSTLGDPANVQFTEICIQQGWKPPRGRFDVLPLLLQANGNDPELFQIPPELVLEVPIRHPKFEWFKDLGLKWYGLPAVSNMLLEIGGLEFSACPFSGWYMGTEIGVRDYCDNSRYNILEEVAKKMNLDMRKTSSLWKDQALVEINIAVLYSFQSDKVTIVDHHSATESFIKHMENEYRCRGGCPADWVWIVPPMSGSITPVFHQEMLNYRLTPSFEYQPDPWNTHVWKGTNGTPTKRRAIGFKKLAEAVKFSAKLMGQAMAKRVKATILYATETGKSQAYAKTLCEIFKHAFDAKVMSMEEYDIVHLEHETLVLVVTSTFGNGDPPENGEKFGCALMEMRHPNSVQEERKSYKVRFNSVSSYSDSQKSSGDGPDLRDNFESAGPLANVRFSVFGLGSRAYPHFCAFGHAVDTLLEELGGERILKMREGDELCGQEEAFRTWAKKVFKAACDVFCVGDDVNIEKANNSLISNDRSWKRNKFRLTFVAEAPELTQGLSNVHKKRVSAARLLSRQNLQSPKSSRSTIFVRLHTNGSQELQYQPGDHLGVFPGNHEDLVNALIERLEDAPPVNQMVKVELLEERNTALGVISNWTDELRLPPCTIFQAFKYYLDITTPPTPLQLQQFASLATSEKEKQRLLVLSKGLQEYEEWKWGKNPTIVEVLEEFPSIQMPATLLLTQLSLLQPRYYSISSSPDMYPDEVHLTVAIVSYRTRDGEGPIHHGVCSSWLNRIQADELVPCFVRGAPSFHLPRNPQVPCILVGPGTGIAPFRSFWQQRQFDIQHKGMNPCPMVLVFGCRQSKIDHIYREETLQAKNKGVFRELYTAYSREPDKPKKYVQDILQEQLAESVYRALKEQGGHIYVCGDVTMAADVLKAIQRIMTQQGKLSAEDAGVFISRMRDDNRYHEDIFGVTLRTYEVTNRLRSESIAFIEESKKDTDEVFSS

Chain of Nitric oxide synthase, inducible (P35228 whole entry): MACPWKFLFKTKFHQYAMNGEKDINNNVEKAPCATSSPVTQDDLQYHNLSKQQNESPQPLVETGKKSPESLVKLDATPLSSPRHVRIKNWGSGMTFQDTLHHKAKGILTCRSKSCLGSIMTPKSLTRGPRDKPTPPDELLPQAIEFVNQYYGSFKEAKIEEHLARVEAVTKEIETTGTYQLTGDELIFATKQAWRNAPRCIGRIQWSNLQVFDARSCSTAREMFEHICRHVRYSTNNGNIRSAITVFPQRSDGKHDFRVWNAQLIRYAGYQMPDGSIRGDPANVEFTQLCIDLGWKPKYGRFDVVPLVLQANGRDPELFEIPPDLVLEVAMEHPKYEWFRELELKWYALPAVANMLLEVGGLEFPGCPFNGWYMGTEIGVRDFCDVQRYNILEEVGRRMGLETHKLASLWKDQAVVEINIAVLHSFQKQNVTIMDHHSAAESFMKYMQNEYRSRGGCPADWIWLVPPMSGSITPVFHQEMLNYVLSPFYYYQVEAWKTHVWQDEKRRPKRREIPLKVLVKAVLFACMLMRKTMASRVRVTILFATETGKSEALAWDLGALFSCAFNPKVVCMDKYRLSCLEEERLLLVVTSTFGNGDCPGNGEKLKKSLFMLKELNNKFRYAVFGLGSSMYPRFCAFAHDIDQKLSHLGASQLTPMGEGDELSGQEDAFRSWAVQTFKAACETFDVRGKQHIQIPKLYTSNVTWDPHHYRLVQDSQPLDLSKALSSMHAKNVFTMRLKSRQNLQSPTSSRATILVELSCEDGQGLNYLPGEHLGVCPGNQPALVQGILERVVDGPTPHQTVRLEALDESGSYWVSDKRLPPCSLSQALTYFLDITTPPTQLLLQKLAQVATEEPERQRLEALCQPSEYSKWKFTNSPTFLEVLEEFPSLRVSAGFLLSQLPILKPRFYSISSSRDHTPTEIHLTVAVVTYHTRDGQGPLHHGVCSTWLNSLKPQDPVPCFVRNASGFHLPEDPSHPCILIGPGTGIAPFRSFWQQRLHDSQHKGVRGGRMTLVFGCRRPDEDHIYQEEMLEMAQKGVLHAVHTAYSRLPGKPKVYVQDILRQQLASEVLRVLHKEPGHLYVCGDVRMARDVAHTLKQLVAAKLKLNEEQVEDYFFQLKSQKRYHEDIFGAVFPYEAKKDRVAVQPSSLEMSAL

IC50 [1] [µM]	IC50 (Nitric oxide synthase 3) [µM]	IC50 (Nitric oxide synthase 1) [µM]	SMILES
5.7	6.2	0.14	NC1=Nc2ccc(Cl)cc2[C@H]2CCC[C@@H]12
89	57	1.6	NC1=Nc2ccc(C(F)(F)F)cc2[C@H]2CCC[C@@H]12
35	72	0.73	NC1=Nc2c(F)cc(Cl)cc2[C@H]2CCC[C@@H]12
		> 100	CNC1=Nc2ccccc2[C@H]2CCC[C@@H]12
2.3	5.8	0.17	NC1=Nc2c(F)cccc2[C@H]2CCC[C@@H]12
		> 200	c1ccc2c(c1)NC[C@@H]1CCC[C@H]21
1.1	2.3	0.13	NC1=Nc2cc(F)ccc2[C@H]2CCC[C@@H]12
		6.8	NC1=Nc2ccccc2[C@H]2CCCC[C@@H]12
4.1	0.96	0.13	NC1=Nc2ccccc2[C@H]2COC[C@@H]12
1.1	6.2	0.19	Cc1ccc2c(c1)N=C(N)[C@@H]1CCC[C@H]21
2.7	3.3	0.16	NC1=Nc2ccccc2[C@H]2CCC[C@@H]12
2.6	12	0.31	NC1=Nc2cc([N+](=O)[O-])ccc2[C@H]2CCC[C@@H]12
32	54	0.64	N#Cc1ccc2c(c1)[C@H]1CCC[C@H]1C(N)=N2
12	21	0.5	Cc1ccc2c(c1)[C@H]1CCC[C@H]1C(N)=N2
14	17	0.31	NC1=Nc2ccc(Br)cc2[C@H]2CCC[C@@H]12
		> 100	ONC1=Nc2ccccc2[C@H]2CCC[C@@H]12
13	24	0.64	COc1ccc2c(c1)[C@H]1CCC[C@H]1C(N)=N2
1.4	4.1	0.24	COc1ccc2c(c1)N=C(N)[C@@H]1CCC[C@H]21
1.7	2.3	0.11	NC1=Nc2ccc(F)cc2[C@H]2CCC[C@@H]12
5.1	20	0.68	NC1=Nc2c(ccc(F)c2F)[C@H]2CCC[C@@H]12
78	> 200	2.1	NC1=Nc2c(cc(Cl)c(F)c2F)[C@H]2CCC[C@@H]12
		3.3	NC1=Nc2ccccc2N2CCCC12 (stereo unspecified)
		100	NC1=Nc2ccccc2[C@H]2CCCCC[C@@H]12
30	> 200	4.1	NC1=Nc2c(Cl)cc(Cl)cc2[C@H]2CCC[C@@H]12
15	34	0.25	NC1=Nc2ccc([N+](=O)[O-])cc2[C@H]2CCC[C@@H]12

SMILES	IC50 [1] [µM]	IC50 (Nitric oxide synthase 3) [µM]	IC50 (Nitric oxide synthase 1) [µM]
COC(=O)[C@@H](N)CCCNC(=N)N[N+](=O)[O-] [L-NAME]	8	1.5	1.6
